In patent US20250352520A1, “USE OF DEXPRAMIPEXOLE FOR THE TREATMENT OF EOSINOPHILIC COPD” (Areteia Therapeutics, Inc., priority 2024, published 2025):

How the values were obtained:
[1] = tested on: eosinophils in blood and airways; conditions: 150 mg BID dexpramipexole dihydrochloride; up to approximately
[2] = Method: Participants performed post-BD spirometry at specific visits as noted in the SOA.
After completing the pre-BD spirometry, participants inhaled four puffs of albuterol/salbutamol (site sourced) metered dose inhaler (approximately 100 μg albuterol/salbutamol base per actuation), with each actuation 1 minute apart. Post-BD spirometry was assessed within 15 to 30 minutes after inhalation of albuterol/salbutamol.

[3] = AECR≥0.5 patients, after 16 weeks
[4] = Week 16, <50% AEC reduction at Week 16
[5] = Week 16, <50% AEC reduction at Week 16 (N = 4), 150 mg BID

SMILES: CCCN[C@@H]1CCc2nc(N)sc2C1 [Dexpramipexole, (6R)-2-amino-4,5,6,7-tetrahydro-6-(propylamino)benzothiazole]
- reductions of eosinophils in blood and airways [1]: ≤ 80%
- Post-BD FEV1, absolute increase [2, 3]: 220 mL
- Post-BD FEV1, improvement compared to baseline [2, 3]: 16.6%
- Post-BD FEF25-75, absolute increase ([2]; AECR≥0.5 patients, week 16): 130 mL
- Post-BD FEF25-75, average increase compared to baseline ([2]; AECR≥0.5 patients, week 16): 26.7%
- Post-BD FVC, absolute increase ([2]; AECR≥0.5 patients, week 16): 226.7 mL
- Post-BD FVC, average increase compared to baseline ([2]; AECR≥0.5 patients, week 16): 9.2%
- Post-BD Peak Flow, average improvement compared to baseline ([2]; AECR≥0.5 patients, week 16): 40.2%
- Post-BD FEV1 % change from baseline, Max [2, 4]: 19%
- Post-BD FEV1 % change from baseline, Mean ± SD [2, 4]: −0.1± 21.10%
- Post-BD FEV1 % change from baseline, Median [2, 4]: 4.8%
- Post-BD FEV1 % change from baseline, Min [2, 4]: −29%
- Post-BD FEV1 % change from baseline, Q1 [2, 4]: −15%
- Post-BD FEV1 % change from baseline, Q3 [2, 4]: 15%
- Post-BD FEV1 Observed, Max [2, 4]: 1950 mL
- Post-BD FEV1 Observed, Mean ± SD [2, 4]: 1522.5 ± 546.34 mL
- Post-BD FEV1 Observed, Median [2, 4]: 1705.0 mL
- Post-BD FEV1 Observed, Min [2, 4]: 730 mL
- Post-BD FEV1 Observed, Q1 [2, 4]: 1170 mL
- Post-BD FEV1 Observed, Q3 [2, 4]: 1875 mL
- Post-BD FEV1 change from baseline, Max [2, 4]: 290 mL
- Post-BD FEV1 change from baseline, Mean ± SD [2, 4]: 40.0 ± 260.90 mL
- Post-BD FEV1 change from baseline, Median [2, 4]: 85.0 mL
- Post-BD FEV1 change from baseline, Min [2, 4]: -300 mL
- Post-BD FEV1 change from baseline, Q1 [2, 4]: -160 mL
- Post-BD FEV1 change from baseline, Q3 [2, 4]: 240 mL
- Post bronchodilator Forced Expiratory Flow 25-75% (FEF25-75), % CFB (Percent change from baseline), Max [2, 5]: 54%
- Post bronchodilator Forced Expiratory Flow 25-75% (FEF25-75), % CFB (Percent change from baseline), Mean ± SD [2, 5]: 9.7 ± 40.69%
- Post bronchodilator Forced Expiratory Flow 25-75% (FEF25-75), % CFB (Percent change from baseline), Median [2, 5]: 7.3%
- Post bronchodilator Forced Expiratory Flow 25-75% (FEF25-75), % CFB (Percent change from baseline), Min [2, 5]: −29%
- Post bronchodilator Forced Expiratory Flow 25-75% (FEF25-75), % CFB (Percent change from baseline), Q1 [2, 5]: −25%
- Post bronchodilator Forced Expiratory Flow 25-75% (FEF25-75), % CFB (Percent change from baseline), Q3 [2, 5]: 44%
- Post bronchodilator Forced Expiratory Flow 25-75% (FEF25-75), CFB (Change from baseline), Max [2, 5]: 290 mL/s
- Post bronchodilator Forced Expiratory Flow 25-75% (FEF25-75), CFB (Change from baseline), Mean ± SD [2, 5]: 90.0 ± 225.24 mL/s
- Post bronchodilator Forced Expiratory Flow 25-75% (FEF25-75), CFB (Change from baseline), Median [2, 5]: 90.0 mL/s
- Post bronchodilator Forced Expiratory Flow 25-75% (FEF25-75), CFB (Change from baseline), Min [2, 5]: -110 mL/s
- Post bronchodilator Forced Expiratory Flow 25-75% (FEF25-75), CFB (Change from baseline), Q1 [2, 5]: -105 mL/s
- Post bronchodilator Forced Expiratory Flow 25-75% (FEF25-75), CFB (Change from baseline), Q3 [2, 5]: 285 mL/s
- Post bronchodilator Forced Expiratory Flow 25-75% (FEF25-75), Observed, Max [2, 5]: 1090 mL/s
- Post bronchodilator Forced Expiratory Flow 25-75% (FEF25-75), Observed, Mean ± SD [2, 5]: 650.0 ± 382.19 mL/s
- Post bronchodilator Forced Expiratory Flow 25-75% (FEF25-75), Observed, Median [2, 5]: 635.0 mL/s
- Post bronchodilator Forced Expiratory Flow 25-75% (FEF25-75), Observed, Min [2, 5]: 240 mL/s
- Post bronchodilator Forced Expiratory Flow 25-75% (FEF25-75), Observed, Q1 [2, 5]: 340 mL/s
- Post bronchodilator Forced Expiratory Flow 25-75% (FEF25-75), Observed, Q3 [2, 5]: 960 mL/s
- Post bronchodilator Forced Vital Capacity (FVC), % CFB (Percent change from baseline), Max [2, 5]: 18%
- Post bronchodilator Forced Vital Capacity (FVC), % CFB (Percent change from baseline), Mean ± SD [2, 5]: 3.0 ± 14.06%
- Post bronchodilator Forced Vital Capacity (FVC), % CFB (Percent change from baseline), Median [2, 5]: 4.6%
- Post bronchodilator Forced Vital Capacity (FVC), % CFB (Percent change from baseline), Min [2, 5]: −16%
- Post bronchodilator Forced Vital Capacity (FVC), % CFB (Percent change from baseline), Q1 [2, 5]: −6%
- Post bronchodilator Forced Vital Capacity (FVC), % CFB (Percent change from baseline), Q3 [2, 5]: 12%
- Post bronchodilator Forced Vital Capacity (FVC), CFB (Change from baseline), Max [2, 5]: 450 mL
- Post bronchodilator Forced Vital Capacity (FVC), CFB (Change from baseline), Mean ± SD [2, 5]: 70.0 ± 388.16 mL
- Post bronchodilator Forced Vital Capacity (FVC), CFB (Change from baseline), Median [2, 5]: 150.0 mL
- Post bronchodilator Forced Vital Capacity (FVC), CFB (Change from baseline), Min [2, 5]: -470 mL
- Post bronchodilator Forced Vital Capacity (FVC), CFB (Change from baseline), Q1 [2, 5]: -180 mL
- Post bronchodilator Forced Vital Capacity (FVC), CFB (Change from baseline), Q3 [2, 5]: 320 mL
- Post bronchodilator Forced Vital Capacity (FVC), Observed, Max [2, 5]: 3460 mL
- Post bronchodilator Forced Vital Capacity (FVC), Observed, Mean ± SD [2, 5]: 3082.5 ± 447.84 mL
- Post bronchodilator Forced Vital Capacity (FVC), Observed, Median [2, 5]: 3165.0 mL
- Post bronchodilator Forced Vital Capacity (FVC), Observed, Min [2, 5]: 2540 mL
- Post bronchodilator Forced Vital Capacity (FVC), Observed, Q1 [2, 5]: 2715 mL
- Post bronchodilator Forced Vital Capacity (FVC), Observed, Q3 [2, 5]: 3450 mL
- Post bronchodilator Peak Flow, % CFB (Percent change from baseline), Max [2, 5]: 42%
- Post bronchodilator Peak Flow, % CFB (Percent change from baseline), Mean ± SD [2, 5]: 16.9 ± 28.64%
- Post bronchodilator Peak Flow, % CFB (Percent change from baseline), Median [2, 5]: 18.1%
- Post bronchodilator Peak Flow, % CFB (Percent change from baseline), Min [2, 5]: −10%
- Post bronchodilator Peak Flow, % CFB (Percent change from baseline), Q1 [2, 5]: −8%
- Post bronchodilator Peak Flow, % CFB (Percent change from baseline), Q3 [2, 5]: 42%
- Post bronchodilator Peak Flow, CFB (Change from baseline), Max [2, 5]: 150 L/min
- Post bronchodilator Peak Flow, CFB (Change from baseline), Mean ± SD [2, 5]: 51.5 ± 88.04 L/min
- Post bronchodilator Peak Flow, CFB (Change from baseline), Median [2, 5]: 46.0 L/min
- Post bronchodilator Peak Flow, CFB (Change from baseline), Min [2, 5]: -36 L/min
- Post bronchodilator Peak Flow, CFB (Change from baseline), Q1 [2, 5]: -22 L/min
- Post bronchodilator Peak Flow, CFB (Change from baseline), Q3 [2, 5]: 125 L/min
- Post bronchodilator Peak Flow, Observed, Max [2, 5]: 509 L/min
- Post bronchodilator Peak Flow, Observed, Mean ± SD [2, 5]: 326.0 ± 148.82 L/min
- Post bronchodilator Peak Flow, Observed, Median [2, 5]: 324.5 L/min
